Results taken from paper PMC7449217, “The FDA-Approved Drug Nelfinavir Inhibits Lytic Cell-Free but Not Cell-Associated Nonlytic Transmission of Human Adenovirus” (Antimicrobial Agents and Chemotherapy, 2020).
pEC50: −log10 of the molar value. Structures can show the parent of a compound that is named as a salt. Where two headings read alike, the source gives them in different places.

How the values were obtained:
[1] = system: A549 cells; experiment: TC50, number of nuclei in noninfected treated cells; assay type: cell-based, human
Procedure: Per 96-well plate, 15,000 A549 cells, 10,000 HeLa cells, 30,000 HBECs, 30,000 HCE cells, or 30,000 CMT-93 cells were seeded in 100 μl of the respective supplemented medium and allowed to settle for 1 h at room temperature (RT) prior to cell culture incubation at 37°C with 5% CO2 and 95% humidity. The following day, the medium was replaced with 50 μl of the respective virus stock dilution giving rise to 5 to 50 plaques per 96-well plate. Fifty microliters of nelfinavir to obtain a 0.1 to 50 μM final concentration or the DMSO solvent control was also added, both in supplemented medium. For each experiment, a noninfected, treated control was performed. For uphill plaque assays, the medium volume was increased to 150 μl with identical virus and drug concentrations. For wash-in/washout experiments, the virus was incubated on cells in supplemented medium for 1 h at 37°C, cells were washed with PBS, and a 100-μl drug dilution in supplemented medium was added. All experiments were performed in four technical replicates or as indicated. Cells were incubated under standard cell culture conditions. At the indicated times postinfection, the cells were fixed, and the nuclei were stained for 1 h at RT by the addition of 33 μl 16% (wt/vol) paraformaldehyde (PFA) and 4 μg/ml Hoechst 33342 (Sigma-Aldrich, St. Louis, MO, USA) in PBS. Cells were washed three times with PBS and stored in PBS supplemented with 0.02% N3 for infections with viruses harboring a GFP transgene. For wild-type (wt) viruses, cells were quenched in PBS supplemented with 50 mM NH4Cl, permeabilized using 0.2% (vol/vol) Triton X-100 in PBS, and blocked with 0.5% (wt/vol) bovine serum albumin (BSA) in PBS. […] Plates were imaged on either an IXM-XL or an IXM-C automated high-throughput fluorescence microscope (Molecular Devices, San Jose, CA, USA) using a 4× objective in wide-field mode. Hoechst staining was recorded in the 4′,6-diamidino-2-phenylindole (DAPI) channel, the fluorescein isothiocyanate (FITC)/GFP channel was acquired for viral GFP, and the tetramethyl rhodamine isothiocyanate (TRITC)/Texas Red channel was acquired for hexon immunofluorescence staining.
The infection phenotype for each well was quantified using Plaque2.0 ([101]). The number of plaques was determined based on the infection signal (viral GFP or hexon immunofluorescence staining). […] Data were plotted, and the EC50 (infected and treated cells), the TC50 (noninfected, treated cells), as well as the corresponding standard errors (SE) were determined using curve fitting in GraphPad (version 8.1.2; GraphPad Software, Inc.) using three-parameter inhibitor concentration-versus-response nonlinear regression. The mean TI50 was calculated as the […] ratio of the means. The TI50 SE was calculated by error propagation.

[2] = system: HBEC; assay type: cell-based; conditions: human
Procedure: (§1) Per 96-well plate, 15,000 A549 cells, 10,000 HeLa cells, 30,000 HBECs, 30,000 HCE cells, or 30,000 CMT-93 cells were seeded in 100 μl of the respective supplemented medium and allowed to settle for 1 h at room temperature (RT) prior to cell culture incubation at 37°C with 5% CO2 and 95% humidity. The following day, the medium was replaced with 50 μl of the respective virus stock dilution giving rise to 5 to 50 plaques per 96-well plate. Fifty microliters of nelfinavir to obtain a 0.1 to 50 μM final concentration or the DMSO solvent control was also added, both in supplemented medium. For each experiment, a noninfected, treated control was performed. For uphill plaque assays, the medium volume was increased to 150 μl with identical virus and drug concentrations. For wash-in/washout experiments, the virus was incubated on cells in supplemented medium for 1 h at 37°C, cells were washed with PBS, and a 100-μl drug dilution in supplemented medium was added. All experiments were performed in four technical replicates or as indicated. Cells were incubated under standard cell culture conditions. At the indicated times postinfection, the cells were fixed, and the nuclei were stained for 1 h at RT by the addition of 33 μl 16% (wt/vol) paraformaldehyde (PFA) and 4 μg/ml Hoechst 33342 (Sigma-Aldrich, St. Louis, MO, USA) in PBS. Cells were washed three times with PBS and stored in PBS supplemented with 0.02% N3 for infections with viruses harboring a GFP transgene. For wild-type (wt) viruses, cells were quenched in PBS supplemented with 50 mM NH4Cl, permeabilized using 0.2% (vol/vol) Triton X-100 in PBS, and blocked with 0.5% (wt/vol) bovine serum albumin (BSA) in PBS. Cells were incubated with 381.7 ng/ml mouse anti-HAdV hexon protein antibody (Mab8052; Sigma-Aldrich, St. Louis, MO, USA) and subsequently stained using 2 μg/ml goat anti-mouse-Alexa Fluor 594 (catalog number A21203 or A32742; Thermo Fisher Scientific, Waltham, MA, USA). Plates were imaged on either an IXM-XL or an IXM-C automated high-throughput fluorescence microscope (Molecular Devices, San Jose, CA, USA) using a 4× objective in wide-field mode. Hoechst staining was recorded in the 4′,6-diamidino-2-phenylindole (DAPI) channel, the fluorescein isothiocyanate (FITC)/GFP channel was acquired for viral GFP, and the tetramethyl rhodamine isothiocyanate (TRITC)/Texas Red channel was acquired for hexon immunofluorescence staining.
(§2) The infection phenotype for each well was quantified using Plaque2.0 ([101]). The number of plaques was determined based on the infection signal (viral GFP or hexon immunofluorescence staining). Nuclei stained with Hoechst were segmented by using CellProfiler ([178]). Infected nuclei were classified based on the median infection signal per nucleus in CellProfiler. Data were plotted, and the EC50 (infected and treated cells), the TC50 (noninfected, treated cells), as well as the corresponding standard errors (SE) were determined using curve fitting in GraphPad (version 8.1.2; GraphPad Software, Inc.) using three-parameter inhibitor concentration-versus-response nonlinear regression. The mean TI50 was calculated as the […] ratio of the means. The TI50 SE was calculated by error propagation.

[3] = system: HCE cells; assay type: cell-based; conditions: human
Procedure: as §1, §2

[4] = system: HeLa cells; assay type: cell-based; conditions: human
Procedure: as §1, §2

[5] = system: MAdV-3-pIX-FS2A-GFP; experiment: fluorescence-based plaque-forming assay, CMT-93 cells; assay type: cell-based, mouse adenovirus
Procedure: Per 96-well plate, 15,000 A549 cells, 10,000 HeLa cells, 30,000 HBECs, 30,000 HCE cells, or 30,000 CMT-93 cells were seeded in 100 μl of the respective supplemented medium and allowed to settle for 1 h at room temperature (RT) prior to cell culture incubation at 37°C with 5% CO2 and 95% humidity. The following day, the medium was replaced with 50 μl of the respective virus stock dilution giving rise to 5 to 50 plaques per 96-well plate. Fifty microliters of nelfinavir to obtain a 0.1 to 50 μM final concentration or the DMSO solvent control was also added, both in supplemented medium. For each experiment, a noninfected, treated control was performed. […] Plates were imaged on either an IXM-XL or an IXM-C automated high-throughput fluorescence microscope (Molecular Devices, San Jose, CA, USA) using a 4× objective in wide-field mode. Hoechst staining was recorded in the 4′,6-diamidino-2-phenylindole (DAPI) channel, the fluorescein isothiocyanate (FITC)/GFP channel was acquired for viral GFP, and the tetramethyl rhodamine isothiocyanate (TRITC)/Texas Red channel was acquired for hexon immunofluorescence staining.
The infection phenotype for each well was quantified using Plaque2.0 ([101]). The number of plaques was determined based on the infection signal (viral GFP or hexon immunofluorescence staining). […] The mean TI50 was calculated as the EC50/TC50 ratio of the means. […]

[6] = system: HAdV-C2-dE3B-GFP-infected A549 cells; experiment: cellular impedance measurement (xCELLigence) of infected A549 cells, delay of cell death; assay type: cell-based, human; conditions: 100 μM nelfinavir
Procedure: Impedance-based assays were performed using the xCELLigence system (Roche Applied Science and ACEA Biosciences) as described previously ([152], [153]), according to the manufacturer’s instructions ([177]), in a cell culture environment (37°C, 5% CO2, and 95% humidity) in duplicates. The 16-well E plates have a gold-plated sensor array embedded in their glass bottom by which the electrical impedance across each well bottom is measured. The impedance per well, termed the cell index (CI), is recorded as a dimensionless quantity. The background CI was assessed following the addition of 50 μl supplemented medium to each well and equilibration in the incubation environment. After 30 min of equilibration, 9,000 A549 cells in 50 μl supplemented medium were added per well, and measurement was started.
For the quantification of nelfinavir effects on the cytopathogenicity of HAdV-C2-dE3B-GFP compared to HAdV-C2-dE3B-GFP-dADP infection, 50 μl of the supernatant was removed 18 h later and replaced with nelfinavir- and virus-supplemented medium. […] The delay of infection-induced cytotoxicity was calculated as the time point at which the CI of the infected cells had decreased by 50% relative to its maximum. […]

[7] = system: HIV aspartyl protease; parameters: method as in PMID 9397180, PMID 9725550; conditions: cited from earlier work

Structure (SMILES): Cc1c(O)cccc1C(=O)N[C@@H](CSc1ccccc1)[C@H](O)CN1C[C@H]2CCCC[C@H]2C[C@H]1C(=O)NC(C)(C)C [Nelfinavir, Nelfinavir mesylate]
- TC50 ([1]; human, 1 days): 49.50 µM
- TC50 (50% loss of cell nuclei) ([1]; human, 82 h): 10.01 µM
- TC50 ([1]; human, 6 days): 19.08 µM
- TC50 ([1]; noninfected A549, nuclei, 3 dpi, line HAdV-C5): 11.91 µM
- TC50 ([2]; 6 days): 13.33 µM
- TC50 ([2]; 8 days): 12.74 µM
- TC50 ([3]; 5 days): 29.73 µM
- TC50 ([3]; 8 days): 19.59 µM
- TC50 ([4]; 4 days): 29.85 µM
- TC50 ([4]; 5 days): 41.69 µM
- TI50 (TC50/IC50) ([5]; MAdV-3-pIX-FS2A-GFP in CMT-93, 4 dpi, GFP): 3.00
- pEC50 ([5]; Murine mastadenovirus A, CMT93): 5.06
- toxicity in impedance measurement of infected cells [6]: toxic
- inhibitory concentration [7]: low-nanomolar range
